Experimental findings from US12677830B2, “3-alkoxybenzamide derivative, and pest control agent” (Kumiai Chemical Industry Co., Ltd., priority 2020, dated 2026) are described below.

Each structure is given as a SMILES string. A value given as a limit tells only on which side of the number the result lay.

Holding throughout (type): in vivo
In one test the test system is Tetranychus urticae. As to the kind of experiment: Test for control effect against Tetranychus urticae (soybean seedling dip). The settings on record: 312 h, 500 ppm active ingredient (wettable powder in water), soybean seedling inoculated with 35 female adults immersed, 25° C., 13 days after the treatment, read-out: controlling value. The protocol:
[Test Example 5] Test for Control Effect Against Tetranychus urticae
The wettable powder prepared in accordance with Formulation Example 2 was diluted with water to a concentration of 500 ppm as an active ingredient. A soybean seedling previously inoculated with 35 female adults of Tetranychus urticae was immersed in the chemical solution, and air-dried. The treated soybean seedling was placed in a room at constant temperature of 25° C. The number of surviving female adults was examined at 13 days after the treatment, and the controlling value was determined by the calculation formula of Equation 2. The number of replicate is one in each test.
The compound numbers of the compounds showing a controlling value of 90 or more in this test are listed below.

The test system of a further test is Plutella xylostella. Description: Test for insecticidal activity against Plutella xylostella (cabbage leaf dip). Particulars: foliar, 144 h, 500 ppm active ingredient (wettable powder in water), cabbage leaves immersed, ten second instar larvae, 25° C., 6 days after the treatment, read-out: mortality rate. The procedure: [Test Example 1] Test for Insecticidal Activity Against Plutella xylostella
(§1) The wettable powder prepared in accordance with Formulation Example 2 was diluted with water to a concentration of 500 ppm as an active ingredient. Cabbage leaves were immersed in the chemical solution, air-dried, and then placed in a plastic cup. Ten second instar larvae of Plutella xylostella were released into the cup, and the cup was capped. Thereafter, the cup was placed in a room at constant temperature of 25° C. The number of dead insects was examined at 6 days after the treatment, and the mortality rate was calculated by the calculation formula of Equation 1. The number of replicate is one in each test.
(§2) The compound numbers of the compounds showing a mortality rate of 90% or more in this test are listed below.

A further test has as its system Helicoverpa armigera. Description: Test for insecticidal activity against Helicoverpa armigera (cabbage leaf dip). Particulars: foliar, 144 h, 500 ppm active ingredient (wettable powder in water), cabbage leaves immersed, five hatching larvae, 25° C., 6 days after the treatment, read-out: mortality rate. The procedure:
[Test Example 2] Test for Insecticidal Activity Against Helicoverpa armigera
as §1, with “Five hatching” for “Ten second instar”, “Helicoverpa armigera” for “Plutella xylostella”, “two” for “one”
as §2

The test system of the next test is Nilaparvata lugens. As to the kind of experiment: Test for insecticidal activity against Nilaparvata lugens (rice sprout dip). Particulars: 144 h, 500 ppm active ingredient (wettable powder in water), rice sprouts immersed, ten second instar larvae, 25° C., 6 days after the treatment, read-out: mortality rate. The protocol: [Test Example 3] Test for Insecticidal Activity Against Nilaparvata lugens
The wettable powder prepared in accordance with Formulation Example 2 was diluted with water to a concentration of 500 ppm as an active ingredient. The rice sprouts were immersed in the chemical solution, and placed in a plastic cup. Ten second instar larvae of Nilaparvata lugens were released into the plastic cup, and the cup was capped. Thereafter, the cup was placed in a room at constant temperature of 25° C. The number of dead insects was examined at 6 days after the treatment, and the mortality rate was calculated by the calculation formula of Equation 1. The number of replicate is one in each test.
as §2

Another test relates to Aphis gossypii. As to the kind of experiment: Test for control effect against Aphis gossypii (cucumber seedling dip). The settings on record: 72 h, 500 ppm active ingredient (wettable powder in water), cucumber seedling inoculated with nymphs immersed, 25° C., 3 days after the treatment, read-out: mortality rate. The protocol:
[Test Example 4] Test for Control Effect Against Aphis gossypii
The wettable powder prepared in accordance with Formulation Example 2 was diluted with water to a concentration of 500 ppm as an active ingredient. A cucumber seedling previously inoculated with Aphis gossypii nymphs was immersed in the chemical solution, and air-dried. The treated cucumber seedling was placed in a room at constant temperature of 25° C. The number of surviving insects was counted at 3 days after the treatment, and the mortality rate was calculated by the calculation formula of Equation 1. The number of replicate is one in each test.
as §2

For the compound `O=C(NCC(F)(F)F)c1cc(OCCCCCSC(F)(F)F)c(F)cc1Cl` [Compound A-4689, 2-chloro-4-fluoro-N-(2,2,2-trifluoroethyl)-5-({5-[(trifluoromethyl)thio]pentyl}oxy)benzamide], in the test on Tetranychus urticae, the pest or weed control at 500 ppm was ≥ 90%.

What is called mortality is the percentage killed. In the case of `CC(COc1cc(C(=O)NCC(F)(F)F)c(Cl)cc1F)NS(=O)(=O)C(F)(F)F` (stereo not shown) [Compound C-0004, 2-chloro-4-fluoro-N-(2,2,2-trifluoroethyl)-5-{2-[(trifluoromethyl)sulfonamido]propoxy}benzamide], the mortality at 500 ppm with Plutella xylostella, in the test with Helicoverpa armigera, with Nilaparvata lugens and in the test on Aphis gossypii was ≥ 90% throughout. The pest or weed control at 500 ppm in the test on Tetranychus urticae is ≥ 90%.

Take `C[C@@H](COc1cc(C(=O)NC2CC2)c(Cl)cc1F)NS(=O)(=O)C(F)(F)F` [Compound C-0130, (S)-2-chloro-N-cyclopropyl-4-fluoro-5-{2-[(trifluoromethyl)sulfonamido]propoxy}benzamide]: the mortality at 500 ppm in the test with Plutella xylostella, in the test on Helicoverpa armigera, with Nilaparvata lugens and in the test on Aphis gossypii was ≥ 90% throughout. Moreover, the pest or weed control at 500 ppm in the test on Tetranychus urticae was ≥ 90%.

As for `N#CSCCCCCOc1cc(C(=O)NCC(F)(F)F)c(Cl)cc1F` [Compound A-0752, 2-chloro-4-fluoro-5-[(5-thiocyanatopentyl)oxy]-N-(2,2,2-trifluoroethyl)benzamide], the mortality at 500 ppm in the test on Nilaparvata lugens was ≥ 90%.

For the compound `C[C@@H](COc1cc(C(=O)NCC(F)(F)F)c(Cl)cc1F)NS(=O)(=O)C(F)(F)F` [Compound C-0006, (S)-2-chloro-4-fluoro-N-(2,2,2-trifluoroethyl)-5-{2-[(trifluoromethyl)sulfonamido]propoxy}benzamide], the mortality at 500 ppm with Plutella xylostella, in the test on Helicoverpa armigera, in the test on Nilaparvata lugens and in the test with Aphis gossypii was ≥ 90% throughout. Further, the pest or weed control at 500 ppm in the test on Tetranychus urticae is ≥ 90%.

Take `Fc1cc(Cl)c(C(=S)NCC(F)(F)F)cc1OCCCCCSC(F)(F)F` [Compound A-5172, 2-chloro-4-fluoro-N-(2,2,2-trifluoroethyl)-5-({5-[(trifluoromethyl)thio]pentyl}oxy)thiobenzamide]: in the test with Tetranychus urticae, the pest or weed control at 500 ppm is ≥ 90%.

As for `CC(CCl)COc1cc(C(=O)NCC(F)(F)F)c(Cl)cc1F` (stereo not shown) [Compound A-0037, 2-chloro-5-(3-chloro-2-methylpropoxy)-4-fluoro-N-(2,2,2-trifluoroethyl)benzamide], the pest or weed control at 500 ppm with Tetranychus urticae is ≥ 90%.

For `CC(=O)N(CC(F)(F)F)C(=O)c1cc(OCCCCCSC(F)(F)F)c(F)cc1Cl` [Compound A-6814, N-acetyl-2-chloro-4-fluoro-N-(2,2,2-trifluoroethyl)-5-({5-[(trifluoromethyl)thio]pentyl}oxy)benzamide], the mortality at 500 ppm in the test with Nilaparvata lugens was ≥ 90%. The pest or weed control at 500 ppm in the test with Tetranychus urticae is ≥ 90%.

As for `C[C@H](COc1cc(C(=O)NCC(F)(F)F)c(Cl)cc1F)NS(=O)(=O)C(F)(F)F` [Compound C-0005, (R)-2-chloro-4-fluoro-N-(2,2,2-trifluoroethyl)-5-{2-[(trifluoromethyl)sulfonamido]propoxy}benzamide], in the test on Tetranychus urticae, the pest or weed control at 500 ppm is ≥ 90%.

With `C[C@@H](COc1cc(C(=O)NC2(C#N)CC2)c(Cl)cc1F)NS(=O)(=O)C(F)(F)F` [Compound C-2980, (S)-2-chloro-N-(1-cyanocyclopropyl)-4-fluoro-5-{2-[(trifluoromethyl)sulfonamido]propoxy}benzamide], the mortality at 500 ppm with Plutella xylostella, with Nilaparvata lugens and with Aphis gossypii was ≥ 90% each time. In the test with Tetranychus urticae, the pest or weed control at 500 ppm was ≥ 90%.

In the case of `CC(COc1cc(C(=O)NCC(F)(F)F)c(Cl)cc1F)N(C(=O)OC(C)(C)C)S(=O)(=O)C(F)(F)F` (stereo not shown) [Compound C-9422, tert-butyl(1-{4-chloro-2-fluoro-5-[(2,2,2-trifluoroethyl)carbamoyl]phenoxy}propan-2-yl)[(trifluoromethyl)sulfonyl]carbamate], the mortality at 500 ppm in the test on Plutella xylostella, with Helicoverpa armigera, with Nilaparvata lugens and in the test on Aphis gossypii was ≥ 90% in each case. Also, the pest or weed control at 500 ppm in the test on Tetranychus urticae was ≥ 90%.

As for `O=C(NCC(F)(F)F)c1cc(OCCCCCBr)c(F)cc1Cl` [Compound A-0030, 5-[(5-bromopentyl)oxy]-2-chloro-4-fluoro-N-(2,2,2-trifluoroethyl)benzamide], the pest or weed control at 500 ppm in the test on Tetranychus urticae was ≥ 90%.

For the compound `Cc1cc(F)c(OCCCCCSC(F)(F)F)cc1C(=O)NCC(F)(F)F` [Compound A-4712, 4-fluoro-2-methyl-N-(2,2,2-trifluoroethyl)-5-({5-[(trifluoromethyl)thio]pentyl}oxy)benzamide], in the test with Tetranychus urticae, the pest or weed control at 500 ppm was ≥ 90%.

As for `CC(COc1cc(C(=O)NCC(F)(F)F)c(Cl)cc1F)CSC(F)(F)F` (stereo not shown) [Compound B-0009, 2-chloro-4-fluoro-5-{2-methyl-3-[(trifluoromethyl)thio]propoxy}-N-(2,2,2-trifluoroethyl)benzamide], the mortality at 500 ppm with Plutella xylostella, in the test with Helicoverpa armigera, in the test with Nilaparvata lugens and in the test with Aphis gossypii was ≥ 90% throughout. Further, the pest or weed control at 500 ppm with Tetranychus urticae is ≥ 90%.

On to `N#CCN(CC(F)(F)F)C(=O)c1cc(OCCCCCSC(F)(F)F)c(F)cc1Cl` [Compound A-6692, 2-chloro-N-(cyanomethyl)-4-fluoro-N-(2,2,2-trifluoroethyl)-5-({5-[(trifluoromethyl)thio]pentyl}oxy)benzamide], for which the mortality at 500 ppm with Plutella xylostella is ≥ 90%. Further, the pest or weed control at 500 ppm with Tetranychus urticae was ≥ 90%.

Take `CC(=O)N(CC(F)(F)F)C(=O)c1cc(OCC(C)NS(=O)(=O)C(F)(F)F)c(F)cc1Cl` (stereo not shown) [Compound C-4214, N-acetyl-2-chloro-4-fluoro-N-(2,2,2-trifluoroethyl)-5-{2-[(trifluoromethyl)sulfonamido]propoxy}benzamide]: the mortality at 500 ppm in the test on Plutella xylostella, in the test on Helicoverpa armigera, with Nilaparvata lugens and in the test on Aphis gossypii was ≥ 90% throughout. In addition, in the test on Tetranychus urticae, the pest or weed control at 500 ppm is ≥ 90%.

As to `CC(COc1cc(C(=O)NCC(F)(F)F)c(Cl)cc1F)CSC#N` (stereo not shown) [Compound A-0758, 2-chloro-4-fluoro-5-(2-methyl-3-thiocyanatopropoxy)-N-(2,2,2-trifluoroethyl)benzamide], the pest or weed control at 500 ppm in the test on Tetranychus urticae was ≥ 90%.
